In article PMC13210772, “Dual FLT3/MAPK14 Proteolysis-Targeting Chimera (PROTAC) Induces Potent Acute Myeloid Leukemia Cell Death” (Pharmaceuticals, 2026):

Experiments:
EPHA1 = EPHA1 (Homo sapiens, UniProt P21709); assay: NanoBRET CELLinib128; conditions: read-out: Tracer bound
HCK = molecular target: T1, HCK (Homo sapiens, UniProt P08631); assay: NanoBRET CELLinib128; assay type: binding; conditions: 100% no effect, 0% complete tracer displacement, read-out: Tracer bound
T1 construct: Full-length kinase ORF (Promega, Madison, WI, USA) cloned in frame with a NanoLuc-vector was transfected into HEK293T cells; host or cells: HEK293T
T1 sequence (P08631 whole entry): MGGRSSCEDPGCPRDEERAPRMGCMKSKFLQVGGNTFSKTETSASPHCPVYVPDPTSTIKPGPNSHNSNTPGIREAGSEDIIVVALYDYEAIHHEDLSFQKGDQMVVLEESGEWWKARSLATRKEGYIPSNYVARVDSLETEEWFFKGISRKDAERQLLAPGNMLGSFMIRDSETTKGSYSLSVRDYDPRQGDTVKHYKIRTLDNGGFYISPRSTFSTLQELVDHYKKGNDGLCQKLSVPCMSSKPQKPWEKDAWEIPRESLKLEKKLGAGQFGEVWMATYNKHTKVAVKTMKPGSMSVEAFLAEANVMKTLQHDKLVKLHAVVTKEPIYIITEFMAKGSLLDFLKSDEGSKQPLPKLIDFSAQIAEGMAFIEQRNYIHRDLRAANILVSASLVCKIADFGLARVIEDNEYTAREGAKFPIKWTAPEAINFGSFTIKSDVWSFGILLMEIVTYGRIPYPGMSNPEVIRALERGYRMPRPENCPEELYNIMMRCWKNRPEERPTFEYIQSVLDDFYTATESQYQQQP

EPHB2 = molecular target: T2, EPHB2 (Homo sapiens, UniProt P29323); assay: NanoBRET CELLinib128; assay type: binding; conditions: 1 µM; 100% no effect, 0% complete tracer displacement
T2 construct: Full-length kinase ORF (Promega, Madison, WI, USA) cloned in frame with a NanoLuc-vector was transfected into HEK293T cells; host or cells: HEK293T
T2 sequence (P29323 19-1055): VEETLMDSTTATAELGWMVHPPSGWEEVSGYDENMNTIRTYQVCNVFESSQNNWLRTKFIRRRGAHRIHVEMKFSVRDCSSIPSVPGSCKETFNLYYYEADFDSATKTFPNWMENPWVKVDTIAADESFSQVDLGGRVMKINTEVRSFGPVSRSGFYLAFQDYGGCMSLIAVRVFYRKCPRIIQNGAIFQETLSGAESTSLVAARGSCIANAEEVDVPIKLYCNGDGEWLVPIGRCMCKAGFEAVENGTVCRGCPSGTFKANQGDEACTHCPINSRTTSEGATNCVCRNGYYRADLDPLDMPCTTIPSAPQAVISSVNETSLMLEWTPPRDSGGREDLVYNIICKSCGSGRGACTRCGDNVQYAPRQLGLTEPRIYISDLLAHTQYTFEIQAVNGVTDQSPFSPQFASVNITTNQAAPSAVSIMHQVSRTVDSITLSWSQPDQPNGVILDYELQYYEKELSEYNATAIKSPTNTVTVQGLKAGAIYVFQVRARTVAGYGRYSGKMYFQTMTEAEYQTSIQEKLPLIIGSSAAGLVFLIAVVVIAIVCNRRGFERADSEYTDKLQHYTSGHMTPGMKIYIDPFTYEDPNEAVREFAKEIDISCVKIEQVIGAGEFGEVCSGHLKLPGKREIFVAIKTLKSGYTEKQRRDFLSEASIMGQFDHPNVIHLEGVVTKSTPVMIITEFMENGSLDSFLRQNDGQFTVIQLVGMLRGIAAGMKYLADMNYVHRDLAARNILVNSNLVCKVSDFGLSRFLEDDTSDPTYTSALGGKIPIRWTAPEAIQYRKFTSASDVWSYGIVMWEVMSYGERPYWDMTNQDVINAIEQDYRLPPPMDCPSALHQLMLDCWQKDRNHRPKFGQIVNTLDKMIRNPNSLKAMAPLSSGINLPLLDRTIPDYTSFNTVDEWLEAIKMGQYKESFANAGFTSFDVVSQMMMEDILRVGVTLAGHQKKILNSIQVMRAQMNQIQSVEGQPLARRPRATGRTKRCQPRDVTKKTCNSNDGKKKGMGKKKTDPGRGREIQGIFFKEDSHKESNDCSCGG

CAMK1G = molecular target: T3, CAMK1G (Homo sapiens, UniProt Q96NX5); assay: NanoBRET CELLinib128; assay type: binding; conditions: 100% no effect, 0% complete tracer displacement, read-out: Tracer bound
T3 construct: Full-length kinase ORF (Promega, Madison, WI, USA) cloned in frame with a NanoLuc-vector was transfected into HEK293T cells; host or cells: HEK293T
T3 sequence (Q96NX5 whole entry): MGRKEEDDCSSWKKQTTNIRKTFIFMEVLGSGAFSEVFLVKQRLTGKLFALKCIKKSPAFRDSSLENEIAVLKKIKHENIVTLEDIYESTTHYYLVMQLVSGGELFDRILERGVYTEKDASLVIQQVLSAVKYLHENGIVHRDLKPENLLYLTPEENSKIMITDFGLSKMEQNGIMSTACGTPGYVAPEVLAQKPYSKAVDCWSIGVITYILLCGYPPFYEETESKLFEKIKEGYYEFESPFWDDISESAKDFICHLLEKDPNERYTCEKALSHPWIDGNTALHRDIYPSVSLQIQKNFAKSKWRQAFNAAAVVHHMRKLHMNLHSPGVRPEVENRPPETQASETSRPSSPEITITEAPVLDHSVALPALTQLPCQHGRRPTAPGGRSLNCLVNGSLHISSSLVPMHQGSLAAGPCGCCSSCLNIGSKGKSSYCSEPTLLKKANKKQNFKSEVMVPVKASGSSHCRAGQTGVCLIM

STK32B = STK32B (Homo sapiens, UniProt Q9NY57); assay: NanoBRET CELLinib128; conditions: read-out: Tracer bound
Chain of STK32B (Q9NY57 whole entry): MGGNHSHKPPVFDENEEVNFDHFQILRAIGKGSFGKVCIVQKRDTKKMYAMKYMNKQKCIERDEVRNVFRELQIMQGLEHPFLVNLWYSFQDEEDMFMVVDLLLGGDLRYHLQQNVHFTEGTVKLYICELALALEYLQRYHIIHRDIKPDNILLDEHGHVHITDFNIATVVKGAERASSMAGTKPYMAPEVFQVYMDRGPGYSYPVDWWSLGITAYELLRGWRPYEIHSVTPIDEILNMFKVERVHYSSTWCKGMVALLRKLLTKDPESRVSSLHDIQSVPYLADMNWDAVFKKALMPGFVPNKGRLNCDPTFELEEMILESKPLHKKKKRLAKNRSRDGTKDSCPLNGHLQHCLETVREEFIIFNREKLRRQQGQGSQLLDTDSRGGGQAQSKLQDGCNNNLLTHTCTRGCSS

MV4-11 cells = assay: Apoptosis by flow cytometry (annexin-V/propidium iodine); assay type: cell-based, human; conditions: 24 h
Procedure: To further assess the biological relevance of these findings, we treated MV4-11 cells with the new PROTACs, included MA49 as control, and analyzed them for early (annexin-V positive) and late apoptosis (annexin-V and propidium iodine positive) by flow cytometry. Cells in late apoptosis are more severely damaged than cells in early apoptosis. […] After 72 h, all degraders evoked equal levels of apoptosis (Figure 4c). We additionally tested these degraders in MOLM-13 cells which carry FLT3-ITD and FLT3 from a patient with AML after initial myelodysplastic syndrome. These were hardly affected by the degraders after 24 h (Figure 4d).
Figure 4 Biological and biochemical characterization of the FLT3 PROTACs. (a) MV4-11 cells were incubated for 24 h with 50 nM of the indicated compounds. Immunoblotting was performed for the indicated proteins and their phosphorylation (p-) or cleavage (cl.; indicated by arrows); β-actin was used to ensure equal sample loading. (b) MV4-11 cells were treated with the indicated agents and analyzed for early and late apoptosis by flow cytometry. (c) Same as in (b) but treatment for 72 h. (d) MOLM-13 cells were treated with the indicated agents and analyzed for early and late apoptosis by flow cytometry. […] Immunoblots show the expression of the indicated proteins and their phosphorylation (p-); β-actin was used to ensure equal sample loading. […]

MAPK14 = MAPK14 (Homo sapiens, UniProt Q16539); assay: MAPK14 degradation, immunoblot in leukemia cells; assay type: cell-based; design: endogenous in cells; host or cells: K562, RS4-11, MV4-11, MOLM-13 (A17); MV4-11 (A20); conditions: K562, RS4-11, MV4-11 and MOLM-13 cells; 50 nM MA191, 24 h
Chain of MAPK14 (Q16539 2-360 limits assumed): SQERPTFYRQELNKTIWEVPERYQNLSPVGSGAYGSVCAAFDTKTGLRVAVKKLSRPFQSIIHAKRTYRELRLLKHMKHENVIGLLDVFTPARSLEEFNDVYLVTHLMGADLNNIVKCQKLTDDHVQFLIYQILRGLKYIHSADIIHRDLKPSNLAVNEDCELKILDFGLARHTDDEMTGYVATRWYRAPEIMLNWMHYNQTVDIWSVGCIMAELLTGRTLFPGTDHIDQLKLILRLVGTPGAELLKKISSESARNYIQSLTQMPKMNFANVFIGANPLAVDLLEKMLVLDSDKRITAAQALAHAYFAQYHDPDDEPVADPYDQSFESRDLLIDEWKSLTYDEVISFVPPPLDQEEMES

FLT3-ITD = molecular target: T4, FLT3-ITD (Homo sapiens, UniProt P36888, INS600HVDFREYEYD); assay: Phosphorylation of FLT3-ITD, immunoblot in MV4-11 cells; assay type: cell-based; design: We treated MV4-11 cells with the synthesized degraders of FLT3; endogenous in cells; host or cells: MV4-11
T4 sequence (P36888 with tags, fused parts or gaps INS600HVDFREYEYD): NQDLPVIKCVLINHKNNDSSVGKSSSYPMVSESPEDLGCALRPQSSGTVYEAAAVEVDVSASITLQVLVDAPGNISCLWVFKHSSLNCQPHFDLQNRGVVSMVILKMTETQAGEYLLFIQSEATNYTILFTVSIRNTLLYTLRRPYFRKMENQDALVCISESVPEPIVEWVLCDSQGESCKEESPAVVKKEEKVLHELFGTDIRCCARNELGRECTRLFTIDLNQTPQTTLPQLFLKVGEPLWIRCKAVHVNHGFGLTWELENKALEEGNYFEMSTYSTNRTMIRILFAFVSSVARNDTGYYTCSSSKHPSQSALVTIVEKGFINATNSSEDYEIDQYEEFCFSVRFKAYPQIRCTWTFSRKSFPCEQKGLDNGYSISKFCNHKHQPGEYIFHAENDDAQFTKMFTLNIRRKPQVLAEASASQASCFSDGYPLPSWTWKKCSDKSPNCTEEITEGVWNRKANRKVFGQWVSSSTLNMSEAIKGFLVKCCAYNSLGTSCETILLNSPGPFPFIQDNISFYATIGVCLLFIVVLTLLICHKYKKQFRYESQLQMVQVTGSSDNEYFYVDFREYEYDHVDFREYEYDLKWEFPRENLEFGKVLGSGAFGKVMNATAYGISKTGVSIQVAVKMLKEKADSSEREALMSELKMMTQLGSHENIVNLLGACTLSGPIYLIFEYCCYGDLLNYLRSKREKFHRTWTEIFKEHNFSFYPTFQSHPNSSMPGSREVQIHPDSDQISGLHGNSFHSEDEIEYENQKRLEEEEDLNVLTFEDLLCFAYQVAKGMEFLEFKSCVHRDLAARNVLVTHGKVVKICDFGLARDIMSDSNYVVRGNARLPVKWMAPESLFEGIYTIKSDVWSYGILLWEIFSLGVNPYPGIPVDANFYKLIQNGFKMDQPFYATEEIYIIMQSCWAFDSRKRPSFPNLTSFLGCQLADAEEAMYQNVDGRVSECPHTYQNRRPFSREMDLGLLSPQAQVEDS
Source text: We aimed to delineate if the FLT3 inhibitor part of MA191 acts as a MAPK14 inhibitor in MV4-11 cells. We used the phosphorylation of FLT3-ITD and the phosphorylation of MAPK14 as markers for their activation. […] This finding is consistent with the detection of MAPK14 in the kinase selectivity profiling approach (Figure 3; MAPK14 is termed p38α therein).
Figure 7 Targeting MAPK14 augments anti-leukemic effects of an inhibition of FLT3-ITD. (a) The graphs show the mRNA levels of MAPK14 in leukemia cells and normal blood cells. […] All immunoblots show data from at least two independent repetitions. (c) Model for how inhibition of various signaling pathways affects AML cells (red, cytoplasm, blue, nucleus).

MOLM-13 = test system: MOLM-13; design: method as in PMID 30427680, PMID 34959180, PMID 34694800, PMID 36332882, PMID 38655686; conditions: reported FLT3 PROTACs, Figure 1; cited from earlier work

Chain of EPHA1 (P21709 26-976): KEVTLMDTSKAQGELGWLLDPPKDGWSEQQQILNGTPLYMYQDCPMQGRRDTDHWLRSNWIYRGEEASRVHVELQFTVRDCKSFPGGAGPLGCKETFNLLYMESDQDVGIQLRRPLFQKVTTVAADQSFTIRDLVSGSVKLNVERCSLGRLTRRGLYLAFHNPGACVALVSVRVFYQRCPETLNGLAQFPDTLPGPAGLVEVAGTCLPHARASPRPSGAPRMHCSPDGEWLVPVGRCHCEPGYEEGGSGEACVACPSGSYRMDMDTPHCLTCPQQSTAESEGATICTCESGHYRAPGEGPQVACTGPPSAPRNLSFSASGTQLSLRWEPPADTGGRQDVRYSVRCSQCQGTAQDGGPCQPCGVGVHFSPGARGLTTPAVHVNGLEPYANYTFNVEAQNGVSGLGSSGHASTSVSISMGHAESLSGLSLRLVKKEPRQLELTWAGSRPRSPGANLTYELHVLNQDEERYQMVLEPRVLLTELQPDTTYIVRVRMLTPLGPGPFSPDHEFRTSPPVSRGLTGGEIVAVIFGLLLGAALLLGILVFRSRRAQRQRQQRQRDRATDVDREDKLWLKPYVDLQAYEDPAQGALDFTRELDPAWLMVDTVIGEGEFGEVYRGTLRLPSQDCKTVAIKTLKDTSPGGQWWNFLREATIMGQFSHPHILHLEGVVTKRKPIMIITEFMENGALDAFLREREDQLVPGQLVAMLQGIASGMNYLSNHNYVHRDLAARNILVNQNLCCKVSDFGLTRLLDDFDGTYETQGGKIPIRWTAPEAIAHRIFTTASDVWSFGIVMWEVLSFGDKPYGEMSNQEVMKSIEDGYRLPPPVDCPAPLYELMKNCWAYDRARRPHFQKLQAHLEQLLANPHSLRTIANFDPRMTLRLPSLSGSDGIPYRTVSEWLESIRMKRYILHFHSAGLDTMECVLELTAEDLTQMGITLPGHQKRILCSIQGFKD

| Compound | remaining activity at 1 µM (EPHA1) | remaining activity at 1 µM (HCK) | Tracer bound (EPHB2) | remaining activity at 1 µM (CAMK1G) | remaining activity at 1 µM (STK32B) | induction of late apoptosis (MV4-11 cells) | MAPK14 protein level, immunoblot (MAPK14) | phosphorylation of FLT3-ITD (FLT3-ITD) | IC50 (MOLM-13) |
| --- | --- | --- | --- | --- | --- | --- | --- | --- | --- |
| CNC(=O)c1cc(Oc2ccc(NC(=O)Nc3cc(C(C)(C)C)on3)cc2)ccn1 [MA68, reference compound] | 37.2% | 120% | 49.5% | 101% | 104% | – | – | – | – |
| Cc1ncsc1-c1ccc([C@H](C)NC(=O)[C@@H]2C[C@@H](O)CN2C(=O)[C@@H](NC(=O)[C@H]2CC[C@H](C(=O)N3CCC(CCNC(=O)c4cc(Oc5ccc(NC(=O)Nc6cc(C(C)(C)C)on6)cc5)ccn4)CC3)CC2)C(C)(C)C)cc1 [MA190, 4-(4-(3-(5-(tert-Butyl)isoxazol-3-yl)ureido)phenoxy)-N-(2-(1-(trans-4-(((S)-1-((2S,4R)-4-hydroxy-2-(((S)-1-(4-(4-methylthiazol-5-yl)phenyl)ethyl)carbamoyl)pyrrolidin-1-yl)-3,3-dimethyl-1-oxobutan-2-yl)carbamoyl)cyclohexanecarbonyl)piperidin-4-yl)ethyl)picolinamide] | – | – | – | – | – | most effective in inducing late apoptosis | – | – | – |
| Cc1ncsc1-c1ccc([C@H](C)NC(=O)[C@@H]2C[C@@H](O)CN2C(=O)[C@@H](NC(=O)[C@H]2CC[C@H](C(=O)N3CCN(CCNC(=O)c4cc(Oc5ccc(NC(=O)Nc6cc(C(C)(C)C)on6)cc5)ccn4)CC3)CC2)C(C)(C)C)cc1 [MA191, 4-(4-(3-(5-(tert-Butyl)isoxazol-3-yl)ureido)phenoxy)-N-(2-(4-(trans-4-(((S)-1-((2S,4R)-4-hydroxy-2-(((S)-1-(4-(4-methylthiazol-5-yl)phenyl)ethyl)carbamoyl)pyrrolidin-1-yl)-3,3-dimethyl-1-oxobutan-2-yl)carbamoyl)cyclohexanecarbonyl)piperazin-1-yl)ethyl)picolinamide] | 120% | 120% | 120.0% | 91.6% | 92.5% | most effective in inducing late apoptosis | depleted MAPK14 | inhibited the phosphorylation of FLT3-ITD | – |
| Cc1ncsc1-c1ccc([C@H](C)NC(=O)[C@@H]2C[C@@H](O)CN2C(=O)[C@@H](NC(=O)CCOCCOCCOCCNC(=O)c2cc(Oc3ccc(NC(=O)Nc4cc(C(C)(C)C)on4)cc3)ccn2)C(C)(C)C)cc1 [MA49, reference compound] | – | – | – | – | – | – | – | – | 4.8 ± 3.7 nM |
